Test results from BindingDB's records for doi:10.1021/acs.jmedchem.5b00984 (Astrazeneca, 2015).

These compounds were tested against T1, Progesterone receptor (Homo sapiens, UniProt P06401) (assay: Antagonist activity at progesterone receptor in human MCF cells assessed as estradiol-induced receptor response).
T1 sequence (P06401 whole entry): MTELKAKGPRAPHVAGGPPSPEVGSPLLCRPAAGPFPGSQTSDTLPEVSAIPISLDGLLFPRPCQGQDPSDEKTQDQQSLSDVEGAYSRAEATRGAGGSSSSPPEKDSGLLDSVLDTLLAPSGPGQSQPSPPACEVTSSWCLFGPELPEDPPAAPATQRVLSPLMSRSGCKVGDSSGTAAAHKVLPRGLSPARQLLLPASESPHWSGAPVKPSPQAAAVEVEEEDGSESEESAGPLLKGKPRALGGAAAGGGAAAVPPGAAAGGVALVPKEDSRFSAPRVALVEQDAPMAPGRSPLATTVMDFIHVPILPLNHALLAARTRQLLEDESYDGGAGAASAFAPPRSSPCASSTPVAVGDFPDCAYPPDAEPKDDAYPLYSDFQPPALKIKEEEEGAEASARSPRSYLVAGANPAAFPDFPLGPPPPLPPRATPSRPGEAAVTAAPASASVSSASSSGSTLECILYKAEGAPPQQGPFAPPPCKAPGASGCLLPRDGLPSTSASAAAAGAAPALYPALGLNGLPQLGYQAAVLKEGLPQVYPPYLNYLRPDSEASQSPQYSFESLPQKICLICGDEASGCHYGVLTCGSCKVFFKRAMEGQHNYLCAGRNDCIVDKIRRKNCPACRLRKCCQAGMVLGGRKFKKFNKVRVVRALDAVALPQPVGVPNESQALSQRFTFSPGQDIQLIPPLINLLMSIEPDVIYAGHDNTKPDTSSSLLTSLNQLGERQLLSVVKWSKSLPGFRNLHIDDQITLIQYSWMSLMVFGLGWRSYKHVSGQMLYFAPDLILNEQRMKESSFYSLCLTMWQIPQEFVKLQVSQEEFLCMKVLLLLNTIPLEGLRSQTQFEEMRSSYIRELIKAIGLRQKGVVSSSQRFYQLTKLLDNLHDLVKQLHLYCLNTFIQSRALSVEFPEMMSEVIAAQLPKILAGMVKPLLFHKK

| IC50 [nM] | SMILES |
| --- | --- |
| 1510 | C[C@@H]1Cc2c([nH]c3ccccc23)[C@@H](c2ccc(Cl)cc2)N1CCC(=O)O |
| 3.6 | CC(C)CN1[C@H](c2ccc(/C=C/C(=O)O)cc2)c2[nH]c3ccccc3c2C[C@H]1C |
| 2090 | C[C@@H]1Cc2c([nH]c3ccccc23)[C@@H](c2ccc(Cl)cc2)N1C[C@H](C)C(=O)O |
| 3.5 | C[C@@H]1Cc2c([nH]c3ccccc23)[C@@H](c2ccc(/C=C/C(=O)O)cc2)N1CC(C)(C)F |
| 912 | C[C@@H]1Cc2c([nH]c3ccc(O)cc23)[C@@H](c2ccc(Cl)cc2)N1CCO |
| 12 | CC/C(=C(\c1ccc(O)cc1)c1ccc(/C=C/C(=O)O)cc1)c1ccccc1 [GW7604] |
| 724 | C[C@@H]1Cc2c([nH]c3ccccc23)[C@@H](c2ccc(Cl)cc2)N1CCO |
| 2690 | OCCN1CCc2c([nH]c3ccccc23)C1c1ccc(Cl)cc1 (centres undefined) |
| 0.832 | CC(C)CN1[C@H](c2c(F)cc(/C=C/C(=O)O)cc2F)c2[nH]c3ccccc3c2C[C@H]1C |
| 2290 | C[C@@H]1Cc2c([nH]c3ccccc23)[C@@H](c2ccc(/C=C/C(=O)O)cc2)N1CCO |
| 50 | C[C@@H](CO)CN1[C@H](c2ccc(/C=C/C(=O)O)cc2)c2[nH]c3ccccc3c2C[C@H]1C |
| 3980 | CC/C(=C(\c1ccccc1)c1ccc(/C=C/C(=O)O)cc1)c1ccccc1 [(E)-3-[4-((Z)-1,2-Diphenyl-but-1-enyl)-phenyl]-acrylic acid] |

| SMILES | IC50 [nM] |
| --- | --- |
| CC/C(=C(\c1ccc(O)cc1)c1ccc(OCCN(C)C)cc1)c1ccccc1 [[3H]4-OHT] | 0.794 |
| C[C@]12CC[C@@H]3c4ccc(O)cc4C[C@@H](CCCCCCCCC[S+]([O-])CCCC(F)(F)C(F)(F)F)[C@H]3[C@@H]1CC[C@@H]2O (some centres undefined) | 0.209 |
